Non-standard residues stand in square brackets, D forms with d. Residues, ends and D or L forms follow the SMILES beside them. *: point of attachment. 1Nal = N[C@@H](Cc1cccc2ccccc12)C(=O)O; Leu(ol) = CC(C)C[C@H](N)CO; Cbz = O=C(OCc1ccccc1)*
`CCc1nc2c(N)nc3cccnc3c2n1CC1(O)CCN(S(C)(=O)=O)CC1` gave a melting point greater than 255 °C.
`CN(c1cccc2cc(-c3ncc(CCC#N)s3)[nH]c12)S(=O)(=O)c1cccs1` showed a melting point of 207 to 208 °C.
With `Cc1cccc(C(=O)Nc2ccc3c(c2)CCC(NCc2ccccn2)CC3)c1-c1ccc(C(F)(F)F)cc1` (stereo not given) the melting point was 104 to 106 °C.
In the case of `O=S1(=O)NCN(C2CC2)c2c1ccc(F)c2F`, the melting point is reported as 160 to 162 °C.
`CC(C)CCS(=O)(=O)NC(=O)CCc1cc(C2CC2)nn1Cc1ccc(C(F)(F)F)cc1Cl` gave a melting point of 160 to 162 °C.
With `COC(=O)c1c(N)ncn1C(c1ccccc1)c1ccccc1` the melting point was 199 to 201 °C.
For `NS(=O)(=O)c1ccc(C2=NC3(O)c4ccc(Cl)cc4CC3S2)cc1` (stereo not given), the melting point was 160 °C.
In the case of `CCOc1ncc(C(C)=O)cc1C(=O)O`, the melting point is reported as 117 to 118 °C.
`Cc1c(C)c2c(c(C)c1NC(=O)CC(C)(C)C)C(N1CCCCC1)C(C)(C)O2` (stereo not given) showed a melting point of 229 to 230 °C.
Work on `O=C(Nc1cccc(S(=O)(=O)N2CCOCC2)c1)c1cnn2c(C(F)(F)F)cc(-c3ccc(Cl)cc3)nc12` yielded a melting point of 144 °C.
For `CC(C)(C=NO)C(O)(CCc1ccc(F)cc1)Cn1cncn1` (stereo not given), the melting point was 101 to 103 °C.
Work on `CN1CCN(c2cccc3c2CC[C@@H](N)C3)CC1` yielded a melting point of 98 to 99 °C.
Compound `S=C(NCCC1CC(c2ccccc2)=NO1)N1CCOCC1` (stereo not given) has a melting point of 128 to 130 °C.
Compound `COc1c(Cl)ccc(-c2nc(N)c(Cl)c(C(=O)O)n2)c1F` has a melting point of 172 to 173 °C.
For `CC(C)C[C@@H](CO)NC(=O)[C@H](Cc1c[nH]cn1)NC(=O)[C@H](Cc1cccc2ccccc12)NC(=O)OCc1ccccc1` (Cbz-[1Nal]-His-[Leu(ol)]), the melting point was 157 to 159 °C.
Work on `CCCCCCc1ccc(-c2ncc(C#N)cn2)cc1` yielded a melting point of 86.3 to 87.8 °C.
In the case of `CCc1ccc2c(c1)C=Cc1cc(C)ccc1C2c1cn(-c2ccnc(NCC(=O)Nc3nnn[nH]3)n2)c(=O)[nH]c1=O` (stereo not given), the melting point is reported as 220 to 225 °C.
With `CCC1(O)c2ccccc2C=Cc2ccccc21` the melting point was 63 to 65 °C.
`C#CCn1c(Br)c(C[C@H](NC(C)=O)C(=O)OC)c2c(Br)c(OC)c(Br)cc21` showed a melting point of 284 to 285 °C.
`COC(=O)c1cc(S(C)(=O)=O)c(NS(=O)(=O)c2sc3ccc(Cl)cc3c2C)cc1C` showed a melting point of 205 to 207 °C.
`O=C1N(Cc2ncccn2)c2ccccc2C12COc1cc3c(cc12)OCCO3` (stereo not given) showed a melting point of 210 to 212 °C.
In the case of `O=c1ccc(C(c2ccccc2)c2ccccc2)c[nH]1`, the melting point is reported as 174 to 176 °C.
Compound `CCc1cccc(CC)c1NS(=O)(=O)c1ccc(C)cc1` has a melting point of 130 to 131 °C.
`COc1cc2cnnc(N3CCC(CCN(C)C(=O)Nc4cccnc4)CC3)c2cc1OC` gave a melting point of 200 to 204 °C.
Work on `CC(C)N1Cc2ccccc2P1(=O)c1ccccc1` (stereo not given) yielded a melting point of 92 to 94 °C.
`O=C1NC(=O)C(N(Cc2ccc(Br)cc2)c2ccc(CCNCC(O)COc3ccccc3)cc2)S1` (stereo not given) gave a melting point of 52 to 54 °C.
Work on `C=C(CCC(C)C1CCC2(O)C3=C(C(=O)CC12C)C1(C)CCC(=O)C(C)C1CC3O)C(C)C(=O)O` (stereo not given) yielded a melting point of 175 to 177 °C.
With `COc1nc(C)cnc1NS(=O)(=O)c1ccccc1-c1ccc(CC(C)C)c([N+](=O)[O-])c1` the melting point was 114 to 115 °C.
With `COc1ccc(C(=CN(C)C)C(C)=O)cc1` the melting point was 51 °C.
Compound `C=CC1(F)CN(C2CCCC2)c2nc(Nc3ccc(C(=O)NN4CCN(C)CC4)cc3OC)ncc2N(C)C1=O` (stereo not given) has a melting point of 253 to 263 °C.
For `COC(=O)Cc1ccccc1NS(C)(=O)=O`, the melting point was 73 to 75 °C.
In the case of `C1=Cc2ccccc2C=CN1`, the melting point is reported as 186 to 190 °C.
Compound `COc1nc(O)nc(C)c1Cl` has a melting point of 235 °C.
`CCS(=O)(=O)N(C)C1CC(C)(C)Oc2ccc(OCc3ccccc3)cc21` (stereo not given) showed a melting point of 91 to 93 °C.
In the case of `CCc1c(O)cc(=O)[nH]c1C`, the melting point is reported as 360 °C.
Compound `C=CCNc1nc(NCc2ccccc2)c2cc([N+](=O)[O-])ccc2n1` has a melting point of 235 to 236 °C.
For `CC(=O)Oc1cc(C)ccc1C1CCN(CCCCNC(=O)c2ccc(NC(=O)c3ccc(Cl)cc3)cc2)CC1`, the melting point was 210 °C.
In the case of `Nc1ccc(C(=O)C(=O)c2ccc(N)cc2)cc1`, the melting point is reported as 207 °C.
For `O=C(O)CNC(=O)CC1=C(n2nc(-c3c(-c4ccccc4)nn4ccccc34)ccc2=O)CCCC1`, the melting point was 190 to 192 °C.
`CCc1cc(OC)c(S(C)(=O)=O)cc1C(=O)N=C(N)N` gave a melting point of 192 to 195 °C.
`COc1cc(N)ccc1-c1nc(-c2cccnc2)c(C)[nH]1` showed a melting point of 95 to 100 °C.
Compound `O=C(Nc1cccc(-c2ccnc3c(C(=O)c4cccs4)cnn23)c1)OCc1cccnc1` has a melting point greater than 200 °C.
For `Cc1cc2c(-c3ccc(Br)cc3)c(CC(=O)Nc3ccc(F)cc3C(F)(F)F)c(=O)oc2cc1Cl`, the melting point was 262 to 264 °C.
With `Nc1nc2ccccc2c2c1ncn2CCCCCCCCNC(=O)c1ccccc1` the melting point was 133 to 137 °C.
`CC1Cc2cc3c(cc2C(c2ccc([N+](=O)[O-])cc2)=NN1c1ncon1)OCO3` (stereo not given) gave a melting point of 190 to 196 °C.
In the case of `CCNc1cc(OC)c(C(F)(F)F)cc1[N+](=O)[O-]`, the melting point is reported as 140 to 142 °C.
For `Oc1cc(Cl)cc(Br)c1O`, the melting point was 71 to 73 °C.
For `O=C(NC1CC(=O)c2ccccc2C1)OCc1ccccc1` (stereo not given), the melting point was 79.5 to 81.5 °C.
For `O=C(NCCCn1cnc(-c2ccccc2)c1)c1ccc(Br)cc1`, the melting point was 132 to 135 °C.
`O=C(CNC(=O)OCc1ccc([N+](=O)[O-])cc1)Nc1ccc(C(=O)OCCl)cc1` gave a melting point of 163 to 165 °C.

From a melting point compilation (Tetko et al.; mined from patent text by program, amines drawn as free bases though some values may be those of a salt)
